Consider 2 molecules from US11040043B2, “Transdermal pharmaceutical compositions comprising active agents” (priority 2009, dated 2021).

A word on the AUC(0-t): it is exposure summed from dosing to a finite time, without extrapolation to infinity. Higher therefore signals high exposure. A word on the AUC: it is concentration integrated over time. What is called Cmax is the highest concentration seen after dosing.

Molecules are shown by their SMILES. Read-outs that look alike come from different tables or passages of the source.

One data set can be described thus: clinical. Also on record: species or system human. To be noted: in vivo. From the text:
A multiple-dose, open-label, dose-escalation study was designed in which 12 healthy male subjects were scheduled to receive 1 of 2 treatments once daily for 3 days with an 11-day washout period between doses.
The objective of this Phase 1 study was to assess the safety and pharmacokinetic (PK) profile of multiple dose administration of 0.25 g and 1.00 g of a 0.07% transdermal estradiol gel in healthy male volunteers. The transdermal gel used had the following formulation: […]
Twelve (12) healthy subjects were enrolled and participated in two open-label treatment periods. Subjects who successfully completed the screening process checked into the research center on Day 1, approximately 1 to 2 hours prior to the first blood draw of each treatment period. For Treatment Period A, 0.25 g of the 0.07% gel was to be administered once daily for three days. During Treatment Period B, 1.0 g of the 0.07% gel was to be administered once daily for three days. Dosing days were to be separated by a washout period of at least 11 days.
Diagnosis and Main Criteria for Inclusion: Healthy adult male volunteers, 18-45 years of age, with body mass index (BMI) between 18 and 30 kg/m2, inclusive, and minimum weight of 50 kg (110 pounds).

Data set [1] in a line: Solubility of ethyl oleate as a function of ethanol concentration. It counts as physicochemical. Particulars: for Amount of Ethyl Oleate solubilised in g/100 g: room temperature, 0.24% estradiol, 5% propylene glycol, 2% oleic acid, Qsf water. From the text:
In particular, it appears that the more ester is present in the composition, the better the storage depot effect is. […] An upper limit is imposed, however, by the solubility of the fatty acid ester in the composition.

For `C[C@]12CC[C@@H]3c4ccc(O)cc4CC[C@H]3[C@@H]1CC[C@@H]2O` [Estradiol, estradiol], the “dose proportionality of exposure” value in “clinical” is “less than proportional increase in exposure”. In “clinical” (male, human), the “AUC0-24” value turned out to be 0.7522 ng·h/mL, the “AUC0-120” value came to 2.933 ng·h/mL, the “AUC24-48” value came to 0.661 ng·h/mL and the “AUC48-72” value came out at 0.6581 ng·h/mL. In the data set “clinical” (male, human), the “AUC(0-t)” value came to 4.436 ng·h/mL, the “Cmax-overall” value stood at 0.0646 ng/mL, the “increase in overall systemic exposure based on AUC0-120” value was determined as 1.26 fold and the “increase in peak systemic exposure based on Cmax0-120” value amounted to 1.95 fold. In “clinical” (male, human), the “increase of estradiol concentrations above baseline” value is 2- to 3 fold, the “ratio (0.25 g: 1.00 g) for estradiol AUC0-120” value was 80.01% and the “ratio (0.25 g: 1.00 g) for estradiol Cmax0-120” value was determined as 47.89%. The Tmax in “clinical” (male, human, 0.25 g of 0.07% estradiol gel (Example 10) once daily for 3 days, healthy males, Mean, N 12, read-out: Tmax-overall) amounted to 54.8 h. The Tmax in the data set “clinical” (male, human, 0.25 g, first dosing interval, read-out: Estradiol Tmax after administration of the gel) is around 13 h. The Tmax in the data set “clinical” (male, human, 0.25 g, third dosing interval, read-out: Estradiol Tmax after administration of the gel) was around 3 h. The Tmax in the data set “clinical” (male, human, 1.00 g of 0.07% estradiol gel (Example 10) once daily for 3 days, healthy males, Mean, n 11, read-out: Tmax-overall) came to 29.8 h. Besides, the AUC(0-t) in the data set “clinical” (male, human, AUC0-24 (hr * pg/mL)) came out at 0.477 ng·h/mL. This molecule also registered an AUC(0-t) in “clinical” (male, human, AUC0-120 (hr * pg/mL)) of 2.33 ng·h/mL. In “clinical” (male, human, AUC0-t (hr * pg/mL)), this molecule had an AUC(0-t) of 3.78 ng·h/mL. Further, the AUC in “clinical” (male, human, AUC24-48 (hr * pg/mL)) turned out to be 0.503 ng·h/mL. Further, the exposure (AUC) in “clinical” (male, human, AUC48-72 (hr * pg/mL)) worked out at 0.477 ng·h/mL. In the data set “clinical” (male, human, Cmax-overall (pg/mL)), this molecule came in with a Cmax of 0.0331 ng/mL.
As to `CCCCCCCC/C=C\CCCCCCCC(=O)OCC` [Ethyl Oleate, ethyl oleate], the “Amount of Ethyl Oleate solubilised in g/100 g” value stood at 0.65 g/100 g in data set [1] (EtOH (96% v/v) 64%); 0.91 g/100 g in data set [1] (EtOH (96% v/v) 66%); 1.28 g/100 g in data set [1] (EtOH (96% v/v) 68%); 1.60 g/100 g in data set [1] (EtOH (96% v/v) 70%); 2.19 g/100 g in data set [1] (EtOH (96% v/v) 72%); 2.40 g/100 g in data set [1] (EtOH (96% v/v) 73%). Also, the “maximum ethyl oleate that can be dissolved” value in data set [1] (formulation comprising 72% ethanol) is reported as at most 2.2%.
